Measurements as given in publication PMC3600304, “Inhibitors of Fatty Acid Synthesis Induce PPARα-Regulated Fatty Acid β-Oxidative Genes: Synergistic Roles of L-FABP and Glucose” (PPAR Research, 2013).

How the values were obtained:
SCP-2 = biological target: T1, SCP-2 (Homo sapiens, UniProt P22307); experiment: Displacement of SCP-2-bound NBD-stearic acid; format: binding
T1 construct: made in house
T1 sequence (P22307 1-143 isoform P22307-2): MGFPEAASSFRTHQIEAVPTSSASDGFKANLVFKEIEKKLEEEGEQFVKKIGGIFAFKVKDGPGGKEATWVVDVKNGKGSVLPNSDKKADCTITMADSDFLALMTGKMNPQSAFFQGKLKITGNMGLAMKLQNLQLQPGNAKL
Procedure: Advantage was taken of the fact that NBD-stearic acid bound to L-FABP (two ligand binding sites) as well as SCP-2 (single-ligand binding site) to design a NBD-stearic acid displacement assay that allowed determination of which fatty acid synthesis inhibitors or their CoA thioesters bound to these LCFA/LCFA-CoA binding proteins. Displacement of NBD-stearate from L-FABP and SCP-2 was determined by incubating L-FABP or SCP-2 (25 nM in 10 mM phosphate buffer) with NBD stearate (40 nM) for 12 min to obtain maximal fluorescence, followed by titration with increasing amount of ligand. From the displacement curve, the K i value was calculated as described. All experiments were carried out with a thermostated cuvette to maintain temperature at 24°C using a circulating water bath. ANS displacement assay was performed as described.

[1] = tested on: mouse primary hepatocytes; experiment: Hepatocyte cytosolic glucose level; format: cell-based; details: for Cytosolic glucose / Fold increase of cytosolic glucose versus no inhibitor: inhibitor 10 μg/mL; for Fold increase of cytosolic glucose by inhibitor: high extracellular glucose (20 mM); for Fold increase of cytosolic glucose with increasing glucose from 6 to 20 mM: in the presence of inhibitor 10 μg/mL
Procedure: (§1) Mouse hepatocytes were isolated from livers of male wild-type and L-FABP null mice as described. To study the effect of TOFA and C75 at different glucose levels, mouse hepatocytes were cultured overnight with DMEM/F-12 supplemented with 5% FBS. Cells were incubated with glucose-free DMEM supplemented with fatty acid-free BSA (40 μM), 100 nM insulin, 10 nM dexamethasone, and without (no inhibitor) or with the de novo fatty acid synthesis inhibitors C75 or TOFA (10 μg/mL) for 30 min (1 mL/well). Cells were incubated further for 5 hr with 6 or 20 mM glucose without or with the inhibitors.
Hepatocytes were plated 2 × 10^5 per well in 12-well tissue culture plates (Becton Dickinson and Company, Franklin Lakes, NJ, USA). After incubation with culture medium containing TOFA or C75 with increasing glucose level as described previously, hepatocytes were washed quickly with a cold solution of MgCl2 (100 mM) with 0.1 mM phloretin [46]. Cells were scraped from the dishes with PBS plus protease inhibitor, and cells were broken open with a probe sonicator (Sonic Dismembrator 550, Fisher Scientific, Waltham, MA, USA). Samples were sedimented at 10,000 g, 4°C for 20 min. The supernatant was used for glucose analysis with the Amplite Glucose Quantitation Kit (AAT Bioquest, Inc. Sunnyvale, CA, USA) as instructed by the manufacturer. The number of cultured primary hepatocytes in each sample was calculated based on amount of protein (Bradford Assay, Sigma, St. Louis, MO, USA) compared with reference samples with a known number of hepatocytes. Cytosolic glucose concentration was calculated using 7.4 × 10^−12 liter/cell as volume of the hepatocytes.

[2] = tested on: mouse primary hepatocytes; experiment: Hepatocyte unesterified (free) LCFA determination; format: cell-based; details: normal physiological glucose (6 mM), inhibitor 10 μg/mL
Procedure: as §1
Cultured mouse hepatocytes were plated 4 × 10^5 cells per well in 12-well tissue culture plates. After incubation with TOFA or C75 at different glucose levels as described previously, hepatocytes were washed with cold PBS 4x, scraped with cold PBS (with protease inhibitor), and homogenized with a probe sonicator (Sonic Dismembrator 550, Fisher Scientific, Waltham, MA, USA). A 20 μL sample was saved for protein analysis using the Bio-Rad protein assay reagent, (Bio-Rad, Hercules, CA, USA). […]
The LCFA content of each sample was measured with the Free Fatty Acid Quantification Kit from BioVision, Inc. (Mountain View, California, USA) according to manufacturer's instructions, using a standard of palmitic acid included in the kit. […]

CPT1A = tested on: CPT1A; design: method as in PMID 39932, PMID 4051503, PMID 12060712, PMID 502765; details: rat hepatocytes, media with high glucose (11 mM); cited from earlier work

Row | SMILES | Displacement of NBD-stearic acid bound to SCP-2 (in words) (SCP-2) | K i, displacing SCP-2-bound NBD-stearic acid (SCP-2; SCP-2 25 nM, NBD stearate 40 nM, 24°C) | Cytosolic glucose ([1]; 6 mM glucose in medium) [mM] | Fold increase of cytosolic glucose versus no inhibitor ([1]; 6 mM glucose in medium) | Cytosolic glucose ([1]; 20 mM glucose in medium) [mM] | Fold increase of cytosolic glucose by inhibitor [1] [fold] | Fold increase of cytosolic glucose with increasing glucose from 6 to 20 mM [1] [fold] | Unesterified fatty acid level [2] | CPT1A activity and fatty acid oxidation (CPT1A) | Ki (SCP-2; SCP-2 25 nM, NBD stearate 40 nM, 24°C, read-out: K i, displacing SCP-2-bound NBD-stearic acid) [nM]
1 | C=C1C(=O)OC(CCCCCCCC)C1C(=O)O (centres unmarked) [C75, 4-methylene-2-octyl-5-oxotetrahydrofuran-3-carboxylic acid] | barely detectable | not bound^(a) | 4 | ~ 2 fold | 13 | ~2 | ~4 | Neither TOFA nor C75 significantly impacted | increased | –
2 | CCCCCCCCCCCCCCOc1ccc(C(=O)O)o1 [TOFA, 5-tetradecyloxy-2-furancarboxylic acid] | – | – | 4 | ~ 2 fold | 20 | ~2 | ~5 | Neither TOFA nor C75 significantly impacted | increased | 227 ± 20
